Earlier results on four compounds are cited in patent publication US10478388B2, “Skin engaging shaving aid member comprising at least one thermally resilient sensate” (The Gillette Company, priority 2012, dated 2019).

For series [1] the following is noted: concentration where the cooling effect could be clearly recognized.
The conditions of series [2]: compared to menthol at 2 ppm.

Molecules are shown by their SMILES.

On to `CC(C)[C@@H]1CC[C@@H](C)C[C@@H]1O` [Example 1-neomenthol, 1-neomenthol], for which, in series [1], the Cooling threshold result is reported as “about 3,000 ppb”.
Consider `CC(C)[C@@H]1CC[C@@H](C)C[C@H]1O` [L-menthol], for which the Cooling threshold result in series [1] is “about 800 ppb”.
For `CC(C)[C@@H]1CC[C@@H](C)C[C@@H]1O` [d-neomenthol], the Cooling threshold result in series [1] was “about 25,000 ppb”.
Regarding `CC(C)[C@@H]1CC[C@@H](C)C[C@H]1C(=O)Nc1ccc(CC#N)cc1` [N-[4-(cyanomethyl)phenyl]-(1R,2S,5R)-2-isopropyl-5-methylcyclohexanecarboxamide], the “Cooling as compared to menthol” value in series [2] was “about 10 ×”.
